Reference: ChEMBL document CHEMBL5154932, “Discovery of 1,6-Naphthyridin-2(1H)-one Derivatives as Novel, Potent, and Selective FGFR4 Inhibitors for the Treatment of Hepatocellular Carcinoma” (J Med Chem, 2022)

Columns and labels:
in vitro [1] = settings: mouse, liver microsomes
[2] = rat, in vivo, po, 10 mg/kg
[3] = rat, in vivo, po, 10 mg/kg; remark: listed apart in the source
in vitro [4] = settings: mouse, plasma
[5] = rat, in vivo, iv, 1 mg/kg
[6] = rat, in vivo, iv, 1 mg/kg; remark: listed apart in the source
[7] = rat, in vivo, iv, 1 mg/kg; remark: listed apart in the source
[8] = rat, in vivo, iv, 1 mg/kg; remark: listed apart in the source
[9] = rat, in vivo, po, 10 mg/kg; remark: listed apart in the source
in vitro [10] = settings: cynomolgus monkey, plasma
in vitro [11] = settings: human, plasma
[12] = rat, in vivo, po, 10 mg/kg; remark: listed apart in the source
[13] = rat, in vivo, iv, 1 mg/kg; remark: listed apart in the source
in vitro [14] = settings: human, liver microsomes
[15] = rat, in vivo, iv, 1 mg/kg; remark: listed apart in the source
in vivo [16] = settings: Sprague-Dawley, rat, po, 10 mg/kg
in vitro [17] = settings: beagle, dog, plasma
in vitro [18] = settings: rat, plasma
in vivo [19] = settings: Sprague-Dawley, rat, po, 10 mg/kg; remark: listed apart in the source
in vivo [20] = settings: Sprague-Dawley, rat, po, 10 mg/kg; remark: listed apart in the source
in vivo [21] = settings: Sprague-Dawley, rat, po, 10 mg/kg; remark: listed apart in the source
in vitro [22] = settings: cynomolgus monkey, liver microsomes
in vivo [23] = settings: Sprague-Dawley, rat, po, 10 mg/kg; remark: listed apart in the source
in vivo [24] = settings: Sprague-Dawley, rat, po, 10 mg/kg; remark: listed apart in the source
in vitro [25] = settings: beagle, dog, liver microsomes
in vitro [26] = settings: rat, liver microsomes

SMILES	half-life (in vitro [1]) [min]	half-life (in vitro [4]) [min]	CL [5] [L/h/kg]	MRT(t) [6] [h]	AUCt [7] [ng·h/mL]	t1/2 [8] [min]	half-life (in vitro [10]) [min]	half-life (in vitro [11]) [min]	Vd [13] [L/kg]	half-life (in vitro [14]) [min]	Cmax [15] [ng/mL]	bioavailability (in vivo [16]) [%]	half-life (in vitro [17]) [min]	half-life (in vitro [18]) [min]	MRT last (in vivo [19]) [h]	further results
C=CC(=O)N[C@H]1CCOC[C@H]1Nc1ncc2cc(-c3c(Cl)c(OC)cc(OC)c3Cl)ccc2n1 [FISOGATINIB]	20	> 289	1	1	1023.1	1	> 289	> 289	1.4	25.2	1161	79.7	> 289	> 289	1.8	Tmax [2]: 30 min; Cmax [3]: 2570.9 ng/mL; t1/2 [9]: 1.2 min; AUCt [12]: 8155.2 ng·h/mL
CC#CC(=O)Nc1cc(-c2cc3c(cn2)cc(-c2c(Cl)c(OC)cc(OC)c2Cl)c(=O)n3CC)c(OC)cc1N1C[C@H]2C[C@@H]1CO2	44.1	200	0.4	1.8	2609.6	2	> 289	286	1.1	40.1	1836.2	55.4	> 289	> 289	2.4	Tmax (in vivo [20]): 1.4 h; AUC(0-t) (in vivo [21]): 14400 ng·h/mL; half-life (in vitro [22]): 13.3 min; Cmax (in vivo [23]): 3650 ng/mL; half-life (in vivo [24]): 2 min; half-life (in vitro [25]): 27.3 min; half-life (in vitro [26]): 72.9 min
